The subject of this test is gastric lesion. The test is described as follows: Gastric lesions after pylorus ligation and oral acetylsalicylic acid in the rat (Shay rat, modified by Okabe). Type of test: in vivo. The following applies: 4 hours after pylorus ligation and oral 100 mg/kg acetylsalicylic acid.
Where [1] appears, read: 1.0 μmol/kg intraduodenally, read-out: Reduction of lesion index versus control in %.

Structures are written as SMILES.

As to `COCCO[C@@H]1c2ccn3c(C)c(C)nc3c2N[C@H](c2ccccc2)[C@H]1OC(=O)CN(C)C` [Example 10, (7R,8R,9R)-7-(2-methoxyethoxy)-2,3-dimethyl-8-(N,N-dimethylaminomethylcarbonyloxy)-9-phenyl-7,8,9,10-tetrahydroimidazo[1,2-h][1,7]naphthyridine], under setting [1], the inhibition in vivo at 1 µmol/kg was found to be 100%.

With `COCCO[C@@H]1c2ccn3c(C)c(C)nc3c2N[C@H](c2ccccc2)[C@H]1O` [Example 6, (7R, 8R, 9R)-2,3-dimethyl-8-hydroxy-7-(2-methoxyethoxy)-9-phenyl-7,8,9,10-tetrahydroimidazo[1,2-h][1,7]naphthyridine], the inhibition in vivo at 1 µmol/kg under setting [1] was 100%. On the same count and under the same terms, as for `COCCO[C@@H]1c2ccn3c(C)c(C)nc3c2N[C@H](c2ccccc2)[C@H]1OC(=O)OC` [Example 9, (7R,8R,9R)-8-methoxycarbonyloxy-7-(2-methoxyethoxy)-2,3-dimethyl-9-phenyl-7,8,9,10-tetrahydroimidazo[1,2-h][1,7]naphthyridine], the figure is 100%. As to `COCCO[C@@H]1c2ccn3c(Cl)c(C)nc3c2O[C@H](c2ccccc2)[C@@H]1O` [Example 17, (7R,8R,9R)-3-chloro-8-hydroxy-7-(2-methoxyethoxy)-2-methyl-9-phenyl-7H-8,9-dihydro-pyrano[2,3-c]imidazo[1,2-a]pyridine], the “Reduction of lesion index versus control in %” value (1.0 μmol/kg intraduodenally) came to 100%.

For the molecule `COCCO[C@@H]1c2ccn3c(C)c(C)nc3c2O[C@H](c2ccccc2)[C@@H]1O` [Example 13, (7R,8R,9R)-2,3-dimethyl-8-hydroxy-7-(2-methoxyethoxy)-9-phenyl-7H-8,9-dihydropyrano[2,3-c]imidazo[1,2-a]pyridine], the “Reduction of lesion index versus control in %” value (1.0 μmol/kg intraduodenally) came to 100%.

Consider `COCCO[C@@H]1c2ccn3c(C)c(C)nc3c2N[C@H](c2ccccc2)[C@H]1OC(C)=O` [Example 7, (7R,8R,9R)-8-acetoxy-7-(2-methoxyethoxy)-2,3-dimethyl-9-phenyl-7,8,9,10-tetrahydroimidazo[1,2-h][1,7]naphthyridine], for which the inhibition in vivo at 1 µmol/kg under setting [1] was found to be 100%. Still for that read-out and setting: as for `COCCO[C@@H]1c2ccn3c(C)c(C)nc3c2N[C@H](c2ccccc2)[C@H]1OC(=O)c1ccccc1` [Example 8, (7R,8R,9R)-8-benzoyloxy-7-(2-methoxyethoxy)-2,3-dimethyl-9-phenyl-7,8,9,10-tetrahydroimidazo[1,2-h][1,7]naphthyridine], the figure is 100%. For `COCCO[C@@H]1c2ccn3c(Cl)c(C)nc3c2N[C@H](c2ccccc2)[C@H]1O` [Example 16, (7R,8R,9R)-3-chloro-8-hydroxy-7-(2-methoxyethoxy)-2-methyl-9-phenyl-7.8.9.10-tetrahydroimidazo[1.2-h][1.7]naphthyridine], the “Reduction of lesion index versus control in %” value (6.0 μmol/kg intraduodenally) came to 100%.

For `CO[C@@H]1c2ccn3c(C)c(C)nc3c2N[C@H](c2ccccc2)[C@H]1O` [Example 2, (7R, 8R, 9R)-2,3-dimethyl-8-hydroxy-7-methoxy-9-phenyl-7,8,9,10-tetrahydroimidazo[1,2-h][1,7]naphthyridine], the inhibition in vivo at 1 µmol/kg under setting [1] is 100%. Take `CO[C@H]1c2ccn3c(C)c(C)nc3c2N[C@H](c2ccccc2)[C@H]1O` [Example 3, (7S, 8R, 9R)-2,3-dimethyl-8-hydroxy-7-methoxy-9-phenyl-7,8,9,10-tetrahydroimidazo[1,2-h][1,7]naphthyridine]: under “10.0 μmol/kg intraduodenally, read-out: Reduction of lesion index versus control in %”, the inhibition in vivo at 10 µmol/kg worked out at 100%. On to `CCO[C@@H]1c2ccn3c(C)c(C)nc3c2O[C@H](c2ccccc2)[C@@H]1O` [Example 14, (7R,8R,9R)-2,3-dimethyl-8-hydroxy-7-ethoxy-9-phenyl-7H-8,9-dihydropyrano[2,3-c]imidazo[1,2-a]pyridine], for which, where the note is “1.0 μmol/kg intraduodenally”, the “Reduction of lesion index versus control in %” value was determined as 100%. Consider `CCO[C@@H]1c2ccn3c(C)c(C)nc3c2N[C@H](c2ccccc2)[C@H]1O` [Example 4, (7R, 8R, 9R)-2,3-dimethyl-7-ethoxy-8-hydroxy-9-phenyl-7,8,9,10-tetrahydroimidazo[1,2-h][1,7]naphthyridine], for which the inhibition in vivo at 1 µmol/kg under setting [1] was 100%.

Consider `CCO[C@H]1c2ccn3c(C)c(C)nc3c2N[C@H](c2ccccc2)[C@H]1O` [Example 5, (7S, 8R, 9R)-2,3-dimethyl-7-ethoxy-8-hydroxy-9-phenyl-7,8,9,10-tetrahydroimidazo[1,2-h][1,7]naphthyridine], for which the inhibition in vivo at 1 µmol/kg under setting [1] came to 100%. Regarding `COCCO[C@@H]1c2ccn3cc(C)nc3c2N[C@H](c2ccccc2)[C@H]1O` [Example 15, (7R,8R,9R)-8-hydroxy-2-methyl-7-(2-methoxyethoxy)-9-phenyl-7,8,9,10-tetrahydroimidazo[1,2-h][1,7]naphthyridine], the inhibition in vivo at 6 µmol/kg (6.0 μmol/kg intraduodenally, read-out: Reduction of lesion index versus control in %) is 100%. Consider `COCCO[C@@H]1c2ccn3c(C)c(C)nc3c2N[C@H](c2ccccc2)[C@H]1O` [Example 1, (7R,8R,9R)-8-hydroxy-7-(2-methoxyethoxy)-2,3-dimethyl-9-phenyl-7,8,9,10-tetrahydro-imi-dazo[1,2-h][1,7]naphthyridine], for which the “Reduction of lesion index versus control in %” value (3.0 μmol/kg intraduodenally) is 100%. Take `Cc1nc2c3c(ccn2c1C)[C@@](C)(O)[C@H](O)[C@@H](c1ccccc1)N3` [Example 12, (7R,8R,9R)-2,3,7-trimethyl-7,8-dihydroxy-9-phenyl-7,8,9,10-tetrahydroimidazo[1,2-h][1,7]naphthyridine]: under setting [1], the inhibition in vivo at 1 µmol/kg came out at 100%. Regarding `Cc1nc2c3c(ccn2c1C)[C@@H](O)[C@@](C)(O)[C@@H](c1ccccc1)N3` [Example 11, (7R,8S,9R)-2,3,8-trimethyl-7,8-dihydroxy-9-phenyl-7,8,9,10-tetrahydroimidazo[1,2-h][1,7]naphthyridine], the inhibition in vivo at 1 µmol/kg under setting [1] turned out to be 100%.
